Assay results: ChEMBL document CHEMBL4257587 (J Med Chem, 2018)
In brackets after ≈: the same amount, converted by molar mass.

Assays:
[1] = system: Mycobacterium tuberculosis; assay: Antimycobacterial activity against Mycobacterium tuberculosis H37Rv ATCC 25618 after 6 days by resazurin-based assay; type: functional; conditions: H37Rv ATCC 25618, 144 h
[2] = Intrinsic clearance in human liver microsomes at 0.5 uM preincubated with NADPH and measured up to 30 mins by LC-MS/MS analysis; type: ADME, microsome
[3] = Intrinsic clearance in mouse liver microsomes at 0.5 uM preincubated with NADPH and measured up to 30 mins by LC-MS/MS analysis; type: ADME, microsome
physchem = conditions: buffer, pH 7.4
HepG2 [4] = assay: cells; type: ADME, cell-based; conditions: Homo sapiens, HepG2, 48 h
Description: Cytotoxicity against human HepG2 cells assessed as effect on nuclear morphology after 48 hrs by Hoechst 33342-staining based cell health assay

HepG2 [5] = assay: Cytotoxicity against human HepG2 cells assessed as effect on mitochondrial membrane potential after 48 hrs by TMRM-staining based cell health assay; type: ADME; conditions: HepG2, 48 h
HepG2 [6] = assay: Cytotoxicity against human HepG2 cells assessed as effect on membrane permeability after 48 hrs by TOTO-3 iodide-staining based cell health assay; type: ADME; conditions: HepG2, 48 h

SMILES | MIC90 [1] [µM] | CLH [2] [mL/min/g] | CLH [3] [mL/min/g] | also measured
Cc1cc(CN2CCC3(CC2)OCCc2sccc23)c(C)n1-c1ccc(F)cc1 | 3 (≈ 1.23 µg/mL) |  |  | 
c1ccc(CN2CCC3(CC2)OCCc2sccc23)cc1 | > 5 |  |  | 
O=C(c1ccc2c(c1)OCCO2)N1CCC2(CC1)OCCc1sccc12 | > 80 |  |  | 
c1cc2c(s1)CCOC21CCN(Cc2ccc3c(c2)CCCC3)CC1 | 0.02 (≈ 0.00707 µg/mL) | 22.6 | > 30 | 
CN1CCCC2(CCN(Cc3ccc(Oc4ccc(OC(F)(F)F)cc4)cc3)CC2)C1 | 2.5 (≈ 1.09 µg/mL) |  |  | solubility kinetic at 1 h (physchem): 205 µM (≈ 89.1 µg/mL); IC50 (HepG2 [4]): 6.9 µM; IC50 (HepG2 [5]): 12.2 µM; IC50 (HepG2 [6]): 8 µM
Cc1ccc(CN2CCC3(CC2)OCCc2sccc23)cc1 | 0.2 (≈ 0.0627 µg/mL) | 22.5 | > 30 | 
c1ccc2c(CN3CCC4(CC3)OCCc3sccc34)c[nH]c2c1 | 0.94 (≈ 0.318 µg/mL) | 3.1 | 7 | 
c1cc2c(s1)CCOC2CCNCc1ccc2c(c1)OCCO2 (configuration not stated) | > 5 |  |  | 
c1ccc2c(c1)CCOC21CCN(Cc2ccc3c(c2)OCCO3)CC1 | 0.94 (≈ 0.33 µg/mL) |  |  | 
c1cc2c(s1)CCOC21CCN(Cc2cnc3c(c2)OCCO3)CC1 | > 5 |  |  | 
Cc1ccc(CN2CCC3(CC2)OCCc2sccc23)cc1C | 0.08 (≈ 0.0262 µg/mL) | 18.9 | > 30 | 
c1ccc2c3c([nH]c2c1)C1(CCN(Cc2ccc4c(c2)OCCO4)CC1)OCC3 | 93 (≈ 36.3 µg/mL) |  |  | 
Clc1ccc2c(CN3CCC4(CC3)OCCc3sccc34)c[nH]c2c1 | 0.31 (≈ 0.116 µg/mL) | 1.3 | 10.3 | 
FS(F)(F)(F)(F)c1ccc(CN2CCC3(CC2)OCCc2sccc23)cc1 | 0.14 (≈ 0.0596 µg/mL) | 3 | 18.2 | 
c1ccc2oc(CN3CCC4(CC3)OCCc3sccc34)cc2c1 | 2.7 (≈ 0.917 µg/mL) |  |  | 
CC1(CCNCc2ccc3c(c2)OCCO3)OCCc2sccc21 (configuration not stated) | > 5 |  |  | 
Cc1ccc(CN2CCC3(CC2)OCCc2sccc23)[nH]1 | > 5 | 4.1 | 28.7 | 

SMILES | MIC90 [1] [µM] | CLH [2] [mL/min/g] | CLH [3] [mL/min/g] | also measured
c1cc2c(s1)CCOC21CCN(Cc2ccc3c(c2)CCCO3)CC1 | 0.23 (≈ 0.0818 µg/mL) | 2.9 | > 30 | 
c1ccc2oc(CN3CCC4(CC3)OCCc3ccsc34)cc2c1 | > 100 |  |  | 
O=C(Nc1ccc2c(c1)OCCO2)N1CCC2(CC1)OCCc1sccc12 | > 10 |  |  | 
CC(C)(C)c1ccc(CN2CCC3(CC2)OCCc2sccc23)cc1 | 0.02 (≈ 0.00711 µg/mL) | 9.9 | > 30 | 
Cc1cc(CN2CCC3(CC2)OCCc2sccc23)c(C)n1-c1ccccn1 | 14 (≈ 5.51 µg/mL) |  |  | 
c1cc2c(s1)CCOC21CCN(Cc2ccc3c(c2)OCCO3)C1 (configuration not stated) | > 5 |  |  | 
FC(F)(F)Oc1ccc(Oc2ccc(CN3CCC4(CCCO4)CC3)cc2)cc1 | 1.3 (≈ 0.53 µg/mL) | 1.5 | 0.6 | IC50 (HepG2 [4]): 96.9 µM; IC50 (HepG2 [5]): 141 µM; IC50 (HepG2 [6]): 133 µM
COc1ccc(-n2c(C)cc(CN3CCC4(CC3)OCCc3sccc34)c2C)cc1 | 3 (≈ 1.27 µg/mL) |  |  | 
Cc1cc(CN2CCC3(CC2)OCCc2sccc23)c(C)n1-c1cccnc1 | 14 (≈ 5.51 µg/mL) |  |  | 
O=S(=O)(c1ccc2c(c1)OCCO2)N1CCC2(CC1)OCCc1sccc12 | > 10 |  |  | 
Cc1cccc(CN2CCC3(CC2)OCCc2sccc23)c1 | 0.63 (≈ 0.197 µg/mL) | 5.2 | > 30 | 
c1cc2c(s1)CCOC21CCNCC1 | > 5 |  |  | 
Cc1cc(CN2CCC3(CC2)OCCc2sccc23)c(C)n1-c1ccccc1 | 3 (≈ 1.18 µg/mL) |  |  | 
CC(c1ccc(C(F)(F)F)cc1)N1CCC2(CC1)OCCc1sccc12 (configuration not stated) | 0.63 (≈ 0.24 µg/mL) | 4.6 | 18.1 | 
COc1ccc2c(c1)CCOC21CCN(Cc2ccc3c(c2)OCCO3)CC1 | > 10 |  |  | 
Cc1ccccc1CN1CCC2(CC1)OCCc1sccc12 | > 5 |  |  | 
Cn1cc(CN2CCC3(CC2)OCCc2sccc23)c2ccccc21 | 0.63 (≈ 0.222 µg/mL) | 4.5 | > 30 | 
